target: T1, human renin (Homo sapiens, UniProt P00797); assay: Inhibition of renin activity; format: biochemical; conditions: 1×10^-6 M of the test compound, sheep angiotensinogen, pH 7.3, 10 minutes at 37° C., mean of 3 or 4 experiments
T1 sequence (P00797 67-406): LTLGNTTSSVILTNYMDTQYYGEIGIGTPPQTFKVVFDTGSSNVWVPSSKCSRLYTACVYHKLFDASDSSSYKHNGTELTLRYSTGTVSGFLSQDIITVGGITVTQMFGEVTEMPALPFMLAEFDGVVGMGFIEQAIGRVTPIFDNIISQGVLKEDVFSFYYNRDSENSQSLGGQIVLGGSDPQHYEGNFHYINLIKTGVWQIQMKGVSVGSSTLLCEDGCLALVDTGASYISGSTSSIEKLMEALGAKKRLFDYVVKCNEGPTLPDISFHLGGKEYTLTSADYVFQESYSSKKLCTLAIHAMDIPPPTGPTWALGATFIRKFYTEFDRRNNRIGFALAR
Protocol: The ability of various compounds of the invention to inhibit the activity of renin was determined according to the following method, which follows essentially the procedure of Kokubu et al. [Hypertension, 5, 191-197 (1983)].
Specifically, each test compound was dissolved in 60% v/v aqueous ethanol. Human renin activity in the presence and absence of each compound was measured using sheep angiotensinogen. The total volume of 1 ml of assay mixture contained 0.1 mole/litre phosphate buffer (pH 7.3), human renin (equivalent to 0.5 ng angiotensin I per ml per minute), sheep angiotensinogen (equivalent to 200 ng angiotensin I) 1×10^-6 M of the test compound, 6% v/v ethanol and angiotensinase inhibitors (10 mmole/litre sodium ethylenediaminetetraacetate and 3.4 mmole/litre 8-hydroxyquinoline). The mixture was allowed to react for 10 minutes at 37° C., and then the reaction was stopped by placing the reaction tube in a boiling water bath for 5 minutes. The mixture was then centrifuged and the supernatant (0.05-0.1 ml) was used to assay remaining angiotensin I.
An identical experiment was carried out, as a control, except that the test compound was omitted. From the values obtained were calculated the % inhibition of renin activity achieved by each test compound. The results are shown in the following Table 9, in which the compounds of the invention are identified by the numbers of the Examples given hereafter in which are described their preparation. The values given are the mean of 3 or 4 experiments.

Compound	Inhibitory Activity (%)
N-{N-[(2R)-2-(1-Naphthylmethyl)-3-thiomorpholinocarbonylpropionyl]-3-(4-thiazolyl)-DL-alanyl}-cyclostatin-(2-morpholinoethyl)amide [Example 9]	94.0
O=C(C[C@@H](Cc1cccc2ccccc12)C(=O)N[C@@H](Cc1cscn1)C(=O)N[C@@H](CC1CCCCC1)[C@@H](O)CC(=O)NCCN1CCOCC1)NCCc1ccccc1 [Example 13, N-{N-[(2R)-2-(1-Naphthylmethyl)-3-(phenethylcarbamoyl)propionyl]-3-(4-thiazolyl)-L-alanyl}-cyclostatin-(2-morpholinoethyl)amide]	96.6
CCCCCCNC(=O)C[C@H](O)[C@H](CC1CCCCC1)NC(=O)[C@H](Cc1cscn1)NC(=O)[C@H](Cc1cccc2ccccc12)NC(=O)CN1CCOCC1 [Example 110, N-{N-[N-Morpholinoacetyl-3-(1-naphthyl)-L-alanyl]-3-(4-thiazolyl)-L-alanyl}-cyclostatin-hexylamide]	98.3
CC(C)C[C@H](NC(=O)[C@H](Cc1cccc2ccccc12)NC(=O)CN(C)Cc1ccccc1)C(=O)N[C@@H](CC1CCCCC1)[C@@H](O)CC(=O)NCCCN1CCCC1=O [Example 73, N-{N-[N-(N-Benzyl-N-methylaminoacetyl)-3-(1-naphthyl)-L-alanyl]-L-leucyl}-cyclostatin-[3-(2-oxo-1-pyrrolidinyl)propyl]amide]	97.7
COc1ccccc1N1CCN(CC(=O)N[C@@H](Cc2cccc3ccccc23)C(=O)N[C@@H](Cc2cscn2)C(=O)N[C@@H](CC2CCCCC2)[C@@H](O)CC(=O)NCCN2CCOCC2)CC1 [Example 66, N-[N-{N-[4-(2-Methoxyphenyl)-1-piperazinyl]acetyl-3-(1-naphthyl)-L-alanyl}-3-(4-thiazolyl)-L-alanyl]-cyclostatin-(2-morpholinoethyl)amide]	95.7
CC1CN(C(=O)C[C@@H](Cc2cccc3ccccc23)C(=O)NC(Cc2cscn2)C(=O)N[C@@H](CC2CCCCC2)[C@@H](O)CC(=O)NCCN2CCOCC2)CC(C)O1 (mixture of isomers) [Example 8, N-{N-[(2R)-2-(1-Naphthylmethyl)-3-(2,6-dimethylmorpholinocarbocyl)propionyl]-3-(4-thiazolyl)-DL-alanyl}-cyclostatin-(2-morpholinoethyl)amide]	96.5
CCC(C)CNC(=O)C[C@H](O)[C@H](CC1CCCCC1)NC(=O)[C@H](Cc1cscn1)NC(=O)[C@H](Cc1cccc2ccccc12)NC(=O)CN1CCOCC1 (mixture of isomers) [Example 109]	98.3
CC(C)CN(CC(C)C)C(=O)C[C@H](O)[C@H](CC1CCCCC1)NC(=O)[C@H](Cc1cscn1)NC(=O)[C@H](Cc1cccc2ccccc12)NC(=O)CN1CCOCC1 [Example 106]	98.2
CC(C)CNC(=O)C[C@H](O)[C@H](CC1CCCCC1)NC(=O)[C@H](Cc1cscn1)NC(=O)[C@H](Cc1cccc2ccccc12)NC(=O)CN1CCOCC1 [Example 105, N-{N-[N-Morpholinoacetyl-3-(1-naphthyl)-L-alanyl]-3-(4-thiazolyl)-L-alanyl}-cyclostatin-isobutylamide]	98.0
